Values of other authors as cited in PubChem BioAssay AID1259409 (Chemical Carcinogenesis Research Information System (CCRIS), 2018).

Tested on: rodent chemically induced tumor inhibition, incidence and multiplicity
Assay: CCRIS tumor inhibitor studies
Conditions: Promoter: NONE USED

CCCCCCCCCCCCCCCC(=O)OC/C=C(C)/C=C/C=C(C)/C=C/C1=C(C)CCCC1(C)C
tumour outcome (control, treated, inhibition, significance) (Carcinogen: 3-METHYLCHOLANTHRENE, 56-49-5, Dose [Inhibitor]: 6 MG IN 0.1 ML ACETONE STARTING 2 WK AFTER CARCINOGEN TREATMENT AND APPLIED 2/WK DURING WK 3-5 OF THE STUDY AND THEN 1/W, Route [Inhibitor]: DERMAL, Species: MOUSE, Strain/Sex: SWISS/FEMALE, Target Tissue: Type of Lesion: SKIN: CARCINOMA, Dose [Carcinogen]: 0.1 ML OF 0.3% DISSOLVED IN ACETONE APPLIED 2/WK FIRST 5 WK THEN 1/WK FOR WK 6-9 FOLLOWED BY NO FURTHER TREATMENT THROUG): 5/19 (26%), 4/20 (20%), 23%, not calculated | tumour outcome (control, treated, inhibition, significance) (Carcinogen: 3-METHYLCHOLANTHRENE, 56-49-5, Dose [Inhibitor]: 6 MG IN 0.1 ML ACETONE STARTING 2 WK AFTER CARCINOGEN TREATMENT AND APPLIED 2/WK DURING WK 3-5 OF THE STUDY AND THEN 1/W, Route [Inhibitor]: DERMAL, Species: MOUSE, Strain/Sex: SWISS/FEMALE, Target Tissue: Type of Lesion: SKIN: PAPILLOMA, Dose [Carcinogen]: 0.1 ML OF 0.3% DISSOLVED IN ACETONE APPLIED 2/WK FIRST 5 WK THEN 1/WK FOR WK 6-9 FOLLOWED BY NO FURTHER TREATMENT THROUG): 9/19 (47%), 3/20 (15%), 68%, not calculated | tumour outcome (control, treated, inhibition, significance) (Carcinogen: 7,12-DIMETHYLBENZ[A]ANTHRACENE, 57-97-6, Dose [Inhibitor]: 0, 5000 IU APPLIED TO EACH CHEEK POUCH 2/WK BEGINNING 15 D POST LAST CARCINOGEN DOSE AND CONTINUING FOR 4.5 MO (STUDY DU, Route [Inhibitor]: DERMAL, Species: HAMSTER, Strain/Sex: SYRIAN/MALE, Target Tissue: Type of Lesion: CHEEK POUCH: TUMOR, Dose [Carcinogen]: 0.125 MG (0.25% LIQUID PARAFFIN SOLUTION) APPLIED TO EACH CHEEK POUCH 2/WK FOR 1 MO): 10/15 (67%), 0/20 (0%), 100%, not calculated | tumour outcome (control, treated, inhibition, significance) (Carcinogen: 7,12-DIMETHYLBENZ[A]ANTHRACENE, 57-97-6, Dose [Inhibitor]: 0, 5000 IU APPLIED TO EACH CHEEK POUCH 2/WK BEGINNING 15 D POST LAST CARCINOGEN DOSE AND CONTINUING FOR 4.5 MO (STUDY DU, Route [Inhibitor]: DERMAL, Species: HAMSTER, Strain/Sex: SYRIAN/MALE, Target Tissue: Type of Lesion: STOMACH: TUMOR, Dose [Carcinogen]: 0.125 MG (0.25% LIQUID PARAFFIN SOLUTION) APPLIED TO EACH CHEEK POUCH 2/WK FOR 1 MO): 15/15 (100%), 0/20 (0%), 100%, not calculated | tumour outcome (control, treated, inhibition, significance) (Carcinogen: 7,12-DIMETHYLBENZ[A]ANTHRACENE, 57-97-6, Dose [Inhibitor]: 20000 IU/KG IN DIET BEGINNING 6 WK PRIOR TO CARCINOGEN DOSE AND CONTINUING FOR 21-22 WK POST CARCINOGEN DOSE (STUDY DURA, Route [Inhibitor]: ORAL, Species: RAT, Strain/Sex: SPRAGUE-DAWLEY/MALE, Target Tissue: Type of Lesion: SALIVARY GLAND: TUMOR, Dose [Carcinogen]: 1 MG IN 20 µL OLIVE OIL INJECTED INTO SUBMANDIBULAR GLAND ONCE): 20/28 (71%), 16/29 (55%), 23%, not significant | tumour outcome (control, treated, inhibition, significance) (Carcinogen: 7,12-DIMETHYLBENZ[A]ANTHRACENE, 57-97-6, Dose [Inhibitor]: 100000 IU/KG IN DIET BEGINNING 6 WK PRIOR TO CARCINOGEN DOSE AND CONTINUING FOR 21-22 WK POST CARCINOGEN DOSE (STUDY DUR, Route [Inhibitor]: ORAL, Species: RAT, Strain/Sex: SPRAGUE-DAWLEY/MALE, Target Tissue: Type of Lesion: SALIVARY GLAND: TUMOR, Dose [Carcinogen]: 1 MG IN 20 µL OLIVE OIL INJECTED INTO SUBMANDIBULAR GLAND ONCE): 20/28 (71%), 17/29 (59%), 17%, not significant | tumour outcome (control, treated, inhibition, significance) (Carcinogen: BENZO[A]PYRENE, 50-32-8, Dose [Inhibitor]: 50, 200 IU/D IN DRINKING WATER FOR 61 WK BEGINNING POST CARCINOGEN TREATMENT (STUDY DURATION: 66 WK), Route [Inhibitor]: ORAL, Species: MOUSE, Strain/Sex: ICR/MALE, Target Tissue: Type of Lesion: FORESTOMACH: CARCINOMA, Dose [Carcinogen]: 20 MG IN 0.2 ML CORN OIL 2/WK FOR 5 WK): 8/28 (29%), 5/26 (19%), 34%, not significant | tumour outcome (control, treated, inhibition, significance) (Carcinogen: BENZO[A]PYRENE, 50-32-8, Dose [Inhibitor]: 50, 200 IU/D IN DRINKING WATER FOR 61 WK BEGINNING POST CARCINOGEN TREATMENT (STUDY DURATION: 66 WK), Route [Inhibitor]: ORAL, Species: MOUSE, Strain/Sex: ICR/MALE, Target Tissue: Type of Lesion: FORESTOMACH: PAPILLOMA, Dose [Carcinogen]: 2 MG IN 0.2 ML CORN OIL 2/WK FOR 5 WK): 8/28 (29%), 2/27 (7%), 76%, p<0.05 | tumour outcome (control, treated, inhibition, significance) (Carcinogen: BENZO[A]PYRENE, 50-32-8, Dose [Inhibitor]: 50, 200 IU/D IN DRINKING WATER FOR 61 WK BEGINNING POST CARCINOGEN TREATMENT (STUDY DURATION: 66 WK), Route [Inhibitor]: ORAL, Species: MOUSE, Strain/Sex: ORAL, Target Tissue: Type of Lesion: FORESTOMACH: PAPILLOMA, Dose [Carcinogen]: 20 MG IN O.2 ML CORN OIL 2/WK FOR 5 WK): 26/28 (93%), 23/26 (88%), 5%, not significant | tumour outcome (control, treated, inhibition, significance) (Carcinogen: BENZO[A]PYRENE, 50-32-8, Dose [Inhibitor]: 50, 200 IU/D IN DRINKING WATER FOR DURATION OF STUDY (STUDY DURATION: 66 WK), Route [Inhibitor]: ORAL, Species: MOUSE, Strain/Sex: ICR/MALE, Target Tissue: Type of Lesion: FORESTOMACH: PAPILLOMA, Dose [Carcinogen]: 2 MG IN 0.2 ML CORN OIL 2/WK FOR 5 WK): 8/28 (29%), 2/27 (7%), 76%, p,0.05 | tumour outcome (control, treated, inhibition, significance) (Carcinogen: BENZO[A]PYRENE, 50-32-8, Dose [Inhibitor]: 50, 200 IU/D IN DRINKING WATER FOR THE DURATION OF STUDY (STUDY DURATION: 66 WK), Route [Inhibitor]: ORAL, Species: MOUSE, Strain/Sex: ICR/MALE, Target Tissue: Type of Lesion: FORESTOMACH: CARCINOMA, Dose [Carcinogen]: 20 MG IN 0.2 ML CORN OIL 2/WK FOR 5 WK): 8/28 (29%), 7/27 (26%), 10%, not significant | tumour outcome (control, treated, inhibition, significance) (Carcinogen: BENZO[A]PYRENE, 50-32-8, Dose [Inhibitor]: 50, 200 IU/D IN DRINKING WATER FOR THE DURATION OF STUDY (STUDY DURATION: 66 WK), Route [Inhibitor]: ORAL, Species: MOUSE, Strain/Sex: ICR/MALE, Target Tissue: Type of Lesion: FORESTOMACH: PAPILLOMA, Dose [Carcinogen]: 20 MG IN 0.2 ML CORN OIL 2/WK FOR 5 WK): 26/28 (93%), 20/27 (74%), 19%, not significant | tumour outcome (control, treated, inhibition, significance) (Carcinogen: FIBERGLASS DUST, Dose [Inhibitor]: 50 MG/KG BW IN AQUASOL A PLACEBO, 1/3 D FOR 10 TREATMENTS STARTING 3 D POST CARCINOGEN TREATMENT (STUDY DURATION: 90 D), Route [Inhibitor]: INTRAPERITONEAL, Species: MOUSE, Strain/Sex: STRAIN-A/MALE, Target Tissue: Type of Lesion: LUNG: BRONCHIOGENIC OR SEPTAL CELL TUMOR, Dose [Carcinogen]: 300 MG IN 100 G OF STERILIZED PINE SAWDUST BEDDING CHANGED 1/3 D FOR 30 D STARTING 33 D PRIOR TO START OF AGENT TREATMEN): 6/12 (50%), 1/12 (8%), 84%, not calculated | tumour outcome (control, treated, inhibition, significance) (Carcinogen: N-METHYL-N'-NITRO-N-NITROSOGUANIDINE, 70-25-7, Dose [Inhibitor]: 0, 150000 IU/KG DIET FOR 37 WK (STUDY DURATION: 38 WK), Route [Inhibitor]: ORAL, Species: RAT, Strain/Sex: WISTAR/MALE, Target Tissue: Type of Lesion: FORESTOMACH: BENIGN PAPILLOMA, Dose [Carcinogen]: 83 UG/ML IN DISTILLED DRINKING WATER FOR 37 WK): 15/51 (29%), 3/28 (11%), 62%, p<0.05 | tumour outcome (control, treated, inhibition, significance) (Carcinogen: N-METHYL-N'-NITRO-N-NITROSOGUANIDINE, 70-25-7, Dose [Inhibitor]: 0, 150000 IU/KG DIET FOR 37 WK (STUDY DURATION: 38 WK), Route [Inhibitor]: ORAL, Species: RAT, Strain/Sex: WISTAR/MALE, Target Tissue: Type of Lesion: GASTROINTESTINAL TRACT (UPPER): MALIGNANT NEOPLASMS, Dose [Carcinogen]: 83 UG/ML IN DISTILLED DRINKING WATER FOR 37 WK): 17/51 (33%), 18/28 (64%), -94%, p<0.05 | tumour outcome (control, treated, inhibition, significance) (Carcinogen: N-METHYL-N-NITROSOUREA, 684-93-5, Dose [Inhibitor]: 0.03 MMOL 3/WK STARTING 12 D THROUGH ABOUT 8 MO AFTER FIRST CARCINOGEN DOSE (STUDY DURATION: APPROXIMATELY 8 MO), Route [Inhibitor]: INTRARECTAL, Species: RAT, Strain/Sex: F344/MALE, Target Tissue: Type of Lesion: COLON: ADENOCARCINOMA, Dose [Carcinogen]: 2.5 MG 1/WK FOR 2 WK): 3/39 (8%), 4/39 (10%), -25%, not significant | tumour outcome (control, treated, inhibition, significance) (Carcinogen: N-METHYL-N-NITROSOUREA, 684-93-5, Dose [Inhibitor]: 0.03 MMOL 3/WK STARTING 12 D THROUGH ABOUT 8 MO AFTER FIRST CARCINOGEN DOSE (STUDY DURATION: APPROXIMATELY 8 MO), Route [Inhibitor]: INTRARECTAL, Species: RAT, Strain/Sex: F344/MALE, Target Tissue: Type of Lesion: COLON: ADENOMA, Dose [Carcinogen]: 2.5 MG 1/WK FOR 2 WK): 11/39 (28%), 24/39 (62%), -121%, p<0.05 | tumour outcome (control, treated, inhibition, significance) (Carcinogen: N-METHYL-N-NITROSOUREA, 684-93-5, Dose [Inhibitor]: 0.03 MMOL 3/WK STARTING 15 D PRIOR TO THROUGH ABOUT 8 MO AFTER FIRST CARCINOGEN DOSE (STUDY DURATION: APPROXIMATELY 8 MO, Route [Inhibitor]: INTRARECTAL, Species: RAT, Strain/Sex: F344/MALE, Target Tissue: Type of Lesion: COLON: ADENOCARCINOMA, Dose [Carcinogen]: 2.5 MG 1/WK FOR 2 WK): 3/39 (8%), 10/38 (26%), -225%, not significant | tumour outcome (control, treated, inhibition, significance) (Carcinogen: N-METHYL-N-NITROSOUREA, 684-93-5, Dose [Inhibitor]: 0.03 MMOL 3/WK STARTING 15 D PRIOR TO THROUGH ABOUT 8 MO AFTER FIRST CARCINOGEN DOSE (STUDY DURATION: APPROXIMATELY 8 MO, Route [Inhibitor]: INTRARECTAL, Species: RAT, Strain/Sex: F344/MALE, Target Tissue: Type of Lesion: COLON: ADENOMA, Dose [Carcinogen]: 2.5 MG 1/WK FOR 2 WK): 11/39 (28%), 24/38 (63%), -125%, p<0.05
